Reference: patent publication US20060029548A1, “Methods of diagnosing, monitoring and treating pulmonary diseases” (priority 2004, published 2006)

How the values were obtained:
[1] = tested on: vagal action potentials elicited by ATP; details: dog; cited from earlier work
[2] = tested on: pulmonary RAR-containing afferent nerve fiber; experiment: Vagal activation experiments in dogs: action potentials in RAR-containing fibers; format: in vivo; details: anesthetized dog
Procedure: (§1) The experiments described in Example 5 were performed essentially as described in Pelleg et al. [(1996) J. Physiol. 490(1):265-275] and U.S. Pat. No. 5,874,420, both of which are incorporated herein by reference in their entirety. In brief, they were performed on anesthetized (sodium pentobarbitone, 30 mg kg^−1 plus 3 mg kg^−1 h^−1, intravenous) dogs artificially ventilated with room air using a respirator. Arterial blood pH, PO2, PCO2, body temperature were maintained as described in U.S. Pat. No. 5,874,420. A peripheral vein was cannulated for the administration of physiological saline solution and maintenance doses of anesthetic. Catheters were introduced via the femoral vein and left atrial appendage and positioned in the right atrium and left atrium for the administration of test solutions. The chest was opened by a longitudinal sternotomy. The right cervical vagosympathetic trunk was exposed by a midcervical longitudinal section of the skin and careful dissection of neck muscles and connective tissues. The edges of the cut skin were elevated and secured to create a trough which was filled with warm (about 37° C.) mineral oil. A section of the vagosympathetic trunk was placed on a small plate of black Perspex™ and fine branches were separated from the main bundle by careful dissection using microsurgical tools and a dissecting microscope (Model F212, Jenopik Jena, GmbH, Germany).
Extracellular neural action potentials were recorded using a custom-made bipolar electrode that contained two platinum-iridium wires (1.25 cm×0.0125 cm) connected to a high-impedence first-stage differential amplifier (model AC8331, CW, Inc., Ardmore, Pa.) via a shielded cable. The output of the first-stage amplifier was fed into a second-stage differential amplifier (model BMA-831/C, CWE, Inc.). Isolated fibers were laid on the pair of platinum-iridium wires. Vagal C fibers with chemosensitive endings have a sparse irregular discharge which is not associated with cardiac or respiratory cycles. Confirmation of fiber type was obtained by: first monitoring the response to capsaicin (10 microg kg^−1, intra-right atrial bolus); second, monitoring the response to mechanical stimulation of the lungs using gentle probing with forceps as well as inflation of the lungs to 2-3 times the tidal volume; and third, determining the speed of conduction using a stimulating electrode positioned distal to the initial recording site. Nerve fibers with RAR on their pulmonary endings, spontaneously fire a brief (i.e., short lasting) volley of action potentials associated with peak tracheal pressure during each respiratory cycle.
[…] Volume controls consisted of either 5 ml+5 ml or 1 ml+3 ml physiological saline. All injections were performed in the same mode by the same person. To exclude involvement of baroreceptors in the recorded neural activity, the latter was monitored before and after a bolus of nitroglycerine (1 mg; intravenous).
The procedure described in Example 1 was used to measure action potentials in dog pulmonary fibers with RAR on their terminals following administration of various agents. RAR activation generated a brief volley of action potentials associated with each respiratory cycle that was seen before as well as after administration of ATP (FIG. 7). […] Thus ATP modified the activity of the RAR-containing fiber manifested in their transient loss of the rapid adaptability characteristic.

vagal C fiber = experiment: Vagal activation experiments in dogs: action potentials in vagal C fibers; format: in vivo; details: anesthetized dog, rapid bolus; simultaneous recording with RAR-containing fiber
Procedure: as §1
Extracellular neural action potentials were recorded using a custom-made bipolar electrode that contained two platinum-iridium wires (1.25 cm×0.0125 cm) connected to a high-impedence first-stage differential amplifier (model AC8331, CW, Inc., Ardmore, Pa.) via a shielded cable. The output of the first-stage amplifier was fed into a second-stage differential amplifier (model BMA-831/C, CWE, Inc.). Isolated fibers were laid on the pair of platinum-iridium wires. Vagal C fibers with chemosensitive endings have a sparse irregular discharge which is not associated with cardiac or respiratory cycles. […]
ATP (3 umole kg^−1) and capsaicin (10 ug kg^−1) were administered as a rapid bolus into the right atrium (5 ml test solution+5 ml physiological saline flush). α,βmATP and β,γmATP were given as one low dose only (0.75 umol kg^−1) to avoid systemic side effects. […] To exclude involvement of baroreceptors in the recorded neural activity, the latter was monitored before and after a bolus of nitroglycerine (1 mg; intravenous). […]

[3] = tested on: pulmonary vagal afferent C fibers (P2X3/P2X2/3-receptors); experiment: Perfused nerve-lung preparation: action potentials in C fibers; format: cell-based, guinea pig; details: C fibers (n=4); 10 μM, 1 mL bolus; mean±SD
Procedure: (§2) The method for the extracellular recording of the activity of vagal sensory neurons projecting to guinea pig lungs -has been described in detail previously in Canning et al. [(2004) J. Physiol. 557:543-545], which is incorporated herein by reference in its entirety. Briefly, male Hartley guinea pigs (100-200 g) were killed with CO2 inhalation and exsanguination. The blood from the pulmonary circulation was washed out by in situ perfusion with Krebs' bicarbonate solution (KBS; comprised of 118 mM NaCl, 5.4 mM KCl, 1.0 mM NaH2PO4, 1.2 mM MgSO4, 1.9 mM CaCl2, 25.0 mM NaHCO3, 11.1 mM dextrose, and gassed with 95% O2-5% CO2 at pH7.4). The KBS contained 3 uM indomethacin to reduce the indirect influence of tissue prostanoids on sensory fiber activity. Trachea and right lungs, having intact right-side extrinsic vagal innervation by the inclusion, e.g., of right jugular and nodose ganglia, were dissected from the exsanguinated guinea pigs and placed in a two-compartment tissue bath. The right nodose and jugular ganglia, along with the rostral vagus nerve, were placed into one compartment of the tissue bath whereas the lung and trachea were placed into the second compartment of the tissue bath. The two compartments were separately superfused with KBS (6 ml min^−1, at 37° C.).
(§3) The pulmonary artery and trachea were cannulated with polyethylene (PE) tubing and continuously perfused with KBS (4 ml min^−1 and 2 ml min^−1, respectively). […]
(§4) Once a mechanosensitive receptive field was identified, a brief [<1 millisecond (ms)] electrical stimulus was delivered by a small concentric electrode that was positioned over a discrete region of the mechanosensitive receptive field to determine the conduction velocity of the fiber. […] Conduction velocity was calculated by dividing the distance along the nerve pathway by the time between the shock artifact and the action potential evoked by electrical stimulation of the mechanosensitive receptive field. […]

[4] = tested on: pulmonary vagal afferent A fibers (P2X3/P2X2/3-receptors); experiment: Perfused nerve-lung preparation: action potentials in A fibers; format: cell-based, guinea pig; details: A fibers (n=7); 10 μM, 1 mL bolus; mean±SD
Procedure: as §2, §3, §4

## Cc1nc(N=Nc2ccc(S(=O)(=O)O)cc2S(=O)(=O)O)c(COP(=O)(O)O)c(C=O)c1O [PPADS, pyridoxalphosphate-6-azophenyl-2′4′-disulphonic acid]
[1]
  effect on number of vagal action potentials elicited by ATP: reduced the number of vagal action potentials

## Nc1ncnc2c1ncn2[C@@H]1O[C@H](COP(=O)(O)CP(=O)(O)OP(=O)(O)O)[C@@H](O)[C@H]1O [α,βmATP, α,β-methylene ATP]
[2]; FIG. 9
  potency relative to ATP: more potent than ATP
[2]; rapid bolus, ATP 6 μmol/kg, capsaicin 10 ug kg−1, analogs 0.75 umol kg−1
  effect on action potentials of RAR-containing fibers: acted similarly to ATP
Vagal C fiber
  effect on action potentials of C fibers: acted similarly to ATP
[3]
  frequency of the generated action potentials: 146±29 discharge/sec
[4]
  frequency of the generated action potentials: 1543±285 discharge/sec
